Results reported in article PMC3792137, “NMK-TD-100, a Novel Microtubule Modulating Agent, Blocks Mitosis and Induces Apoptosis in HeLa Cells by Binding to Tubulin” (PLoS ONE, 2013).

Biological target: T1, tubulin (alpha/beta heterodimer)
T1 construct: tubulin purified from goat brain; with alpha-tubulin/beta-tubulin heterodimer
Assay: Ligand fluorescence enhancement titration (Scatchard, Job plot […]); tryptophan quenching gave Kd […]; polymerization IC50 […]
Assay type: binding, Capra hircus

Q: How did the Kd turn out when `COc1cc(-c2nnc(-c3c[nH]c4ccccc34)s2)cc(OC)c1OC` [NMK-TD-100] was run?
A: 1.26 ± 0.32 µM
